In patent US20230114459A1, “Composition for Use in the Prophylaxis and Treatment of Viral Infections of the Asfarviridae Family” (priority 2020, published 2023):

What was measured:
[1] = tested on: Vero cells infected with virus particles
[2] = tested on: African Swine Fever Virus (ASFV)

| SMILES | CPE (first test) [1] | CPE (second test) [1] | Visual scoring of protection against the cytopathic effect of the virus [1] | Solubility in the test solution [1] | Cq value for ASFV compared to positive control [2] |
| --- | --- | --- | --- | --- | --- |
| CCCCCC(=O)O [100% C6, caproic acid] | 3/3 | 3/3 | – | – | – |
| CCCCCCCC(=O)O [100% C8, caprylic acid] | 2/2 | 2/2 | scored best | – | – |
| CCCCCCCCC(=O)O [100% C9, pelargonic acid] | 2/2 | 2/2 | – | – | – |
| CCCCCCCCCC(=O)O [100% C10, capric acid] | 2/4 | 2/4 | – | – | – |
| CCCCCCCCCCCC(=O)O [100% C12, lauric acid] | – | – | – | solubility issue was observed | – |
| CCCCCCCC(=O)O [Composition F1, caprylic acid] | – | – | – | – | significantly increase the Cq value |
